Measured values from patent EP3556362A1, “STING INHIBITORS” (ECOLE POLYTECHNIQUE FEDERALE DE LAUSANNE (EPFL), priority 2018, dated 2019).

What was measured:
TBK1 = target: T1, TBK1 (Homo sapiens, UniProt Q9UHD2); experiment: IFN-β luciferase reporter assay in HEK293T cells, TBK1 driven; conditions: 0.31-2.5µM, 16 h (Figure 2)
T1 sequence (Q9UHD2 1-729): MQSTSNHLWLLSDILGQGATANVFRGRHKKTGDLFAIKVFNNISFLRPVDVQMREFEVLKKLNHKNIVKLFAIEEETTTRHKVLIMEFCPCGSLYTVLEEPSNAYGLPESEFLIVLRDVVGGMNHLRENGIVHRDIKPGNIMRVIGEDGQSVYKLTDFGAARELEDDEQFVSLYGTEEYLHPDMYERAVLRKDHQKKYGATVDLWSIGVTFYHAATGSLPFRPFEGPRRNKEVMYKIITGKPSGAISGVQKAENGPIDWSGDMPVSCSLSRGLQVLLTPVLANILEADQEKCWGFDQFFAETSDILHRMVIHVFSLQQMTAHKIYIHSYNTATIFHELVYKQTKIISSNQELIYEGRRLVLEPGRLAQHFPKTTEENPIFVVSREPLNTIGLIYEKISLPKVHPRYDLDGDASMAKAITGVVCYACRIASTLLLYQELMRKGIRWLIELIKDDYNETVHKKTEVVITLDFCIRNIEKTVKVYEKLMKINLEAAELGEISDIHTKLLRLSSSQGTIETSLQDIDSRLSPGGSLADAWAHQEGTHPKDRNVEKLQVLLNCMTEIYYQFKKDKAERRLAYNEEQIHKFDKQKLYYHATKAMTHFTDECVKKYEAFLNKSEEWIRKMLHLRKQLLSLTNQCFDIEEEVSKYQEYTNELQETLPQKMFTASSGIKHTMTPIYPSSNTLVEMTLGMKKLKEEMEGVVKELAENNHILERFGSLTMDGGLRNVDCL

RIG-I = target: T2, RIG-I (Homo sapiens, UniProt O95786); experiment: IFN-β luciferase reporter assay in HEK293T cells, RIG-I driven (counter-screen and validation)
T2 sequence (O95786 1-925): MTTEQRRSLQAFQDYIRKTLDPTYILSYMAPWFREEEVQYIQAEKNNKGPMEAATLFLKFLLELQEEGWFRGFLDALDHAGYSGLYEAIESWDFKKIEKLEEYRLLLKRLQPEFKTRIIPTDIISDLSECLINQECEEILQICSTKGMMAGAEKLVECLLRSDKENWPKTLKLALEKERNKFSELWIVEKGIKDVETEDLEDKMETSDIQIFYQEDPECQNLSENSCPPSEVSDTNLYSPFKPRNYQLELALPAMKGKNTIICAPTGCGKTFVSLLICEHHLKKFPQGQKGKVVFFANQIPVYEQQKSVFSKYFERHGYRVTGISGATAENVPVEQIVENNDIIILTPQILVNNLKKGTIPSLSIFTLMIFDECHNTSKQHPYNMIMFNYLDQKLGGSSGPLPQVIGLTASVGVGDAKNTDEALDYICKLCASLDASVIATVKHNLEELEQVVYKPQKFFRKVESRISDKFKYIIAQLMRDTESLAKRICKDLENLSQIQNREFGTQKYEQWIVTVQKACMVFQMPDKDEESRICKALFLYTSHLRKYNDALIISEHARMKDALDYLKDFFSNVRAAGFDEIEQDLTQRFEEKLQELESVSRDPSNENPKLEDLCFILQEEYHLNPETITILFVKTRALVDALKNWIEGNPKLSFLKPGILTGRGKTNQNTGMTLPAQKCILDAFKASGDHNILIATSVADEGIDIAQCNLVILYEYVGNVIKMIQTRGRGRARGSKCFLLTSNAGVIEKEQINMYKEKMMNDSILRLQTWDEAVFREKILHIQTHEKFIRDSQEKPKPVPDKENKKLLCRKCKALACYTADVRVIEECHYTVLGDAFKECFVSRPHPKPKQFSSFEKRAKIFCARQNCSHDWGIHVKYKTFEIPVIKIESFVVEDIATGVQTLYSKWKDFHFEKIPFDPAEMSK

CCc1ccc(NC(=O)Nc2c[nH]c3ccccc23)cc1 [F2740-0151, 1-(4-ethylphenyl)-3-(1H-indol-3-yl)urea]
TBK1-mediated type I IFN induction (TBK1): failed to suppress
RIG-I-mediated type I IFN induction (RIG-I; 0.31-2.5µM, 16 h (Figure 2)): failed to suppress
RIG-I driven activation of the IFN-β reporter (RIG-I; counter-screen of hits from the primary screen): but not RIG-I-dependent type I IFN induction
